# Several values for one entry are separate records, joined by “and”; a condition that tells them apart may be missing. Identical values can stand only once.
# Assay: NHP health screening: hematology (CBC)
# Type: in vivo, rhesus macaques (Macaca mulatta)
# [1] = treated female macaques, post-dosing bleed, Mean
# [2] = treated macaques, end of study bleed, individual animals
# [3] = treated macaques, mid-dosing bleed, individual animals
# Protocol: Under light-anesthesia/sedation, peripheral blood samples were collected from each animal prior to treatment and at 7 time points following. Blood analysis (CBC and serum chemistry assays) and physical exams to evaluate the health of the study animals were performed on each animal prior to the beginning of the study and also at three time points during the treatment protocol (see Supplementary data).
smiles,measurement,setting,value
Cc1c(C(=O)N[C@H](C(=O)OCC2CCOCC2)C(C)C)ccc2c1B(O)OC2 [AN15368],Mchc,[1],32.2333 G/Dl
same,Mcv,[1],73.5333 fL
same,Mono,[1],0.2561 10^3/µL
same,Mpv,[1],7.553 fL
same,Neut,[1],2.507 10^3/µL
same,Plt,[1],330.353 10^3/µL
same,Rbc,[1],5.521 10^6/µL
same,Rdw,[1],12.4778%
same,Wbc,[1],5.361 10^3/µL
same,Baso,[2],0.01 10^3/µL and 0.02 10^3/µL and 0 10^3/µL
same,Eos,[2],0.07 10^3/µL and 0.12 10^3/µL and 0.02 10^3/µL and 0.06 10^3/µL and 0.17 10^3/µL and 0.01 10^3/µL and 0.05 10^3/µL and 0.21 10^3/µL and 0.16 10^3/µL and 0.03 10^3/µL
same,Hct,[2],39.5% and 45.3% and 41.2% and 45.7% and 43.1% and 42.5% and 44.2% and 44% and 41.8% and 40.4% and 42.9% and 44.8% and 39.8%
same,Hgb,[2],11.9 G/Dl and 14.7 G/Dl and 12.8 G/Dl and 14.6 G/Dl and 13.3 G/Dl and 13.2 G/Dl and 13.6 G/Dl and 13.7 G/Dl and 13.1 G/Dl and 13 G/Dl and 12.9 G/Dl and 13.4 G/Dl and 12.3 G/Dl
same,Lymp,[2],1.75 10^3/µL and 3.93 10^3/µL and 1.62 10^3/µL and 3.5 10^3/µL and 2.42 10^3/µL and 0.76 10^3/µL and 1.4 10^3/µL and 2.46 10^3/µL and 2.32 10^3/µL and 1.59 10^3/µL and 0.91 10^3/µL and 2.37 10^3/µL and 1.53 10^3/µL and 1.63 10^3/µL
same,Mch,[2],21.9 Pgs and 22.2 Pgs and 23.6 Pgs and 24.2 Pgs and 22.7 Pgs and 21.7 Pgs and 21.5 Pgs and 23.8 Pgs and 22.4 Pgs and 22.3 Pgs and 22.5 Pgs and 22.9 Pgs
same,Mchc,[2],30.1 G/Dl and 32.5 G/Dl and 31.1 G/Dl and 31.9 G/Dl and 30.9 G/Dl and 30.8 G/Dl and 29.6 G/Dl and 31.6 G/Dl and 32.2 G/Dl and 29.9 G/Dl
same,Mcv,[2],72.3 fL and 68.2 fL and 75.6 fL and 75.7 fL and 73.4 fL and 69.9 fL and 73.5 fL and 73.1 fL and 75.2 fL and 69.2 fL and 74.1 fL and 75.4 fL and 74.4 fL
same,Mono,[2],0.25 10^3/µL and 0.23 10^3/µL and 0.17 10^3/µL and 0.37 10^3/µL and 0.36 10^3/µL and 0.48 10^3/µL and 0.3 10^3/µL and 0.21 10^3/µL and 0.2 10^3/µL and 0.44 10^3/µL and 0.26 10^3/µL and 0.29 10^3/µL and 0.12 10^3/µL
same,Mpv,[2],6.3 fL and 7.4 fL and 8.1 fL and 9.7 fL and 8.4 fL and 7 fL and 6.5 fL and 7.9 fL and 7.2 fL and 6.9 fL and 7.3 fL and 6.4 fL
same,Neut,[2],1.44 10^3/µL and 1.12 10^3/µL and 1.09 10^3/µL and 1.69 10^3/µL and 4.26 10^3/µL and 8.57 10^3/µL and 5.95 10^3/µL and 2.2 10^3/µL and 1.94 10^3/µL and 1.95 10^3/µL and 8.94 10^3/µL and 3.94 10^3/µL and 6.95 10^3/µL and 1.75 10^3/µL
same,Plt,[2],418 10^3/µL and 361 10^3/µL and 262 10^3/µL and 246 10^3/µL and 276 10^3/µL and 221 10^3/µL and 490 10^3/µL and 360 10^3/µL and 283 10^3/µL and 257 10^3/µL and 336 10^3/µL and 367 10^3/µL and 446 10^3/µL and 324 10^3/µL
same,Rbc,[2],5.46 10^6/µL and 6.64 10^6/µL and 5.45 10^6/µL and 6.04 10^6/µL and 5.87 10^6/µL and 6.08 10^6/µL and 6.01 10^6/µL and 6.02 10^6/µL and 6.11 10^6/µL and 5.56 10^6/µL and 5.84 10^6/µL and 5.79 10^6/µL and 5.94 10^6/µL and 5.35 10^6/µL
same,Rdw,[2],13.4% and 11.4% and 12.4% and 11.5% and 12.2% and 12.3% and 12.8% and 11.8%
same,Wbc,[2],3.51 10^3/µL and 5.42 10^3/µL and 2.91 10^3/µL and 5.63 10^3/µL and 7.21 10^3/µL and 9.83 10^3/µL and 7.73 10^3/µL and 5.19 10^3/µL and 4.54 10^3/µL and 3.78 10^3/µL and 10.31 10^3/µL and 6.74 10^3/µL and 8.9 10^3/µL and 3.54 10^3/µL
same,Baso,[3],0.01 10^3/µL and 0.02 10^3/µL and 0 10^3/µL
same,Eos,[3],0.07 10^3/µL and 0.09 10^3/µL and 0.04 10^3/µL and 0.06 10^3/µL and 0.16 10^3/µL and 0.08 10^3/µL and 0.05 10^3/µL and 0.18 10^3/µL and 0.19 10^3/µL and 0.2 10^3/µL and 0.02 10^3/µL and 0.26 10^3/µL
same,Hct,[3],41.2% and 42.7% and 40.7% and 46.1% and 39.7% and 43.4% and 40% and 40.3% and 41.5% and 41.9% and 42% and 39.6% and 43.3% and 43.7% and 42.6% and 38.2% and 38.9% and 39.9%

# — publication PMC9519446, “Discovery of an Orally Active Benzoxaborole Prodrug Effective in the Treatment of Chagas Disease in Non-human Primates” (Nature microbiology, 2022)
